Laboratory results as given in paper PMC4850295, “Using a Genetically Encoded Sensor to Identify Inhibitors of Toxoplasma gondii Ca^2+ Signaling” (The Journal of Biological Chemistry, 2016).
Where “and” joins values, the source holds several entries; their conditions need not be identical. Equal entries are not always repeated.

The compounds below were run on T1, GCaMP5-expressing T. gondii. Details: 100 uM zaprinast stimulation, 10 min pretreatment, mean of two replicates, 0.23 h, 10 µM.
T1 construct: whole extracellular parasites expressing GCaMP5 Ca2+ sensor
Set-up: species or system GCaMP5-expressing Toxoplasma gondii, extracellular; GCaMP5 fluorescence (cytosolic Ca2+) after 100 uM zaprinast in compound-pretreated extracellular parasites, background-subtracted, relative to zaprinast alone
Method in brief: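 Read-out is GCaMP5 calcium fluorescence (ex 485/em 525 nm) taken 4 min after 100 μM zaprinast at 37 °C, following 10 min compound pretreatment at 10 μM in duplicate biological replicates. Values are basal-subtracted fold change versus zaprinast-only controls; parasites held extracellular in Ringer's solution.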

`CCn1c(-c2nonc2N)nc2ccccc21` [SB-693162] was tested, and the “fold change in fluorescence relative to zaprinast alone” value was 0.7593 and 1.139.
With `Nc1ncnc2occ(-c3ccc(NC(=O)Nc4cc(C(F)(F)F)ccc4F)cc3)c12` [SB-707548-A] the “fold change in fluorescence relative to zaprinast alone” value was 1.011 and 0.2784.

With `Fc1ccc(-c2nc3n(c2-c2ccncc2)CCS3)cc1` [SKF-86002] the “fold change in fluorescence relative to zaprinast alone” value was 1.092.

Same assay, conditions: 100 uM zaprinast stimulation; 10 min pretreatment; mean of two replicates; 0.23 h

Point of comparison: `CCN1CCC(C(=O)Nc2n[nH]c3nnc(-c4cccc(F)c4F)cc23)CC1` [SB-686709-A], “fold change in fluorescence relative to zaprinast alone” value 1.08. Against it:
- Nc1n[nH]c2cnc(-c3ccccc3)cc12 [SB-642124-AAA] — higher, 1.394
- COc1ccc2cc(-c3nc(-c4ccccc4C(C)C)[nH]c3-c3ccncc3)ccc2c1 [SB-660566] — lower, 0.9646
- CN1CCC(C(=O)Nc2n[nH]c3nnc(-c4ccccc4)cc23)CC1 [SB-678557-A] — higher, 1.083
- CN(C)CCOc1ccc(-c2cc(-c3ccc(Cl)c(O)c3)c(-c3ccncc3)[nH]2)cc1 [SB-684387-B] — lower, 0.6076
- c1ccc(-c2ccnc3[nH]ccc23)cc1 [SB-693578] — higher, 1.319
- CCN1CCC(CC(=O)Nc2n[nH]c3nnc(-c4cccc(F)c4F)cc23)CC1 [SB-698596-AC] — lower, 1.047
- O=C(Nc1n[nH]c2nc(-c3ccccc3)c(Br)cc12)C1CC1 [SB-708998] — lower, 0.9523
- O=C(Nc1n[nH]c2nc(-c3ccccc3)ccc12)C1CC1 [SB-708999] — lower, 1.075
- O=C(Nc1n[nH]c2nc(-c3ccc(O)cc3)ccc12)C1CC1 [SB-710363] — higher, 1.137
- COc1cccc(-c2ccc3c(NC(=O)C4CC4)n[nH]c3n2)c1 [SB-710903] — higher, 1.151
- COc1ccc(-c2ccc3c(NC(=O)C4CC4)n[nH]c3n2)cc1 [SB-711237] — higher, 1.177
- COc1ccccc1-c1ccc2c(NC(=O)C3CC3)n[nH]c2n1 [SB-711239] — higher, 1.107
- O=C(Nc1n[nH]c2nc(-c3cccc(O)c3)ccc12)C1CC1 [SB-711805] — lower, 0.905
- O=C(Nc1n[nH]c2nc(-c3ccccc3O)ccc12)C1CC1 [SB-711880] — higher, 1.267
- O=C(Nc1n[nH]c2nc(-c3ccc(O)cc3)c(Br)cc12)C1CC1 [SB-725317] — higher, 1.144
- Nc1ncnc2scc(-c3ccc(NC(=O)Cc4cc(F)ccc4F)cc3)c12 [SB-731254-M] — higher, 1.242
- O=C(Nc1n[nH]c2cc(-c3cccs3)ccc12)C1CC1 [SB-731284] — higher, 1.194
- CCN1CCN(CCCC(=O)Nc2n[nH]c3nc(-c4ccc(O)cc4)c(Br)cc23)CC1 [SB-731579] — lower, 1.047
- O=C(Nc1n[nH]c2cc(-c3ccsc3)ccc12)C1CC1 [SB-732932] — lower, 1.052
- O=C(Nc1n[nH]c2cc(-c3ccccc3)ccc12)C1CC1 [SB-732941] — higher, 1.147
- O=C(Nc1n[nH]c2cc(-c3ccccc3F)ccc12)C1CC1 [SB-733371] — lower, 0.8641
- CCn1c(-c2ccccc2)nc2cnccc21 [SB-733416] — higher, 1.146
- CCn1c(-c2ccoc2)nc2cnccc21 [SB-733887] — higher, 1.127
- O=C(Nc1n[nH]c2cc(-c3cccc(F)c3F)ccc12)C1CC1 [SB-733894] — higher, 1.167
- Nc1nonc1-c1nc2cnccc2n1C1CCCCC1 [SB-734117] — higher, 1.214
- O=C(Nc1n[nH]c2nc(-c3ccccc3)c(Cl)cc12)C1CC1 [SB-734909] — higher, 1.154
- CCn1c(-c2ccncc2)nc2cnccc21 [SB-735216] — higher, 1.246
- O=C(Nc1n[nH]c2nc(-c3cccs3)c(Br)cc12)C1CC1 [SB-735297] — higher, 1.322
- O=C(Nc1n[nH]c2cc(-c3cccc(F)c3)ccc12)C1CC1 [SB-735464] — lower, 1.069
- O=C(Nc1n[nH]c2cc(-c3cc(F)ccc3F)ccc12)C1CC1 [SB-735465] — higher, 1.125
- O=C(Nc1n[nH]c2cc(-c3ccc(F)cc3)ccc12)C1CC1 [SB-735467] — lower, 0.9628
- Cn1c(-c2nonc2N)nc2cnccc21 [SB-736290] — higher, 1.181
- Nc1nonc1-c1nc2cnccc2n1C1CC1 [SB-736302] — higher, 1.282
- CCn1c(-c2ccccn2)nc2cnccc21 [SB-736398] — lower, 1.076
- CCn1c(-c2ccc[nH]c2=O)nc2cnccc21 [SB-736715] — lower, 0.9368
- CCOc1nccc2c1nc(-c1nonc1N)n2CC [SB-737198] — lower, 0.8453
- O=C(Nc1n[nH]c2cc(-c3ccco3)ccc12)C1CC1 [SB-737447] — higher, 1.13
- CCn1c(-c2c(N)noc2C)nc2cnccc21 [SB-737856] — lower, 0.9935
- CCn1c(-c2nonc2N)nc2cncc(Br)c21 [SB-738004] — lower, 0.8309
- O=C(Nc1n[nH]c2cc(-c3ccoc3)ccc12)C1CC1 [SB-738481] — higher, 1.2
- NS(=O)(=O)c1ccc(-c2ccc3c(NC(=O)C4CC4)n[nH]c3c2)cc1 [SB-738482] — higher, 1.098
- CCn1c(-c2nonc2N)nc2ccncc21 [SB-738561] — higher, 1.114
- O=C(Nc1n[nH]c2nc(-c3ccco3)c(Br)cc12)C1CC1 [SB-739452] — higher, 1.083
- NS(=O)(=O)c1cccc(-c2ccc3c(NC(=O)C4CC4)n[nH]c3c2)c1 [SB-741905] — higher, 1.374
- O=C(Nc1n[nH]c2nc(-c3ccco3)c(Br)cc12)C1CCN(Cc2ccccc2)C1 (stereo not shown) [SB-742034-AC] — lower, 0.9039
- O=C(Nc1n[nH]c2nc(-c3nccs3)c(Br)cc12)C1CC1 [SB-742251] — higher, 1.325
- O=C(Nc1n[nH]c2nc(-c3nccs3)c(Br)cc12)C1CCCC1 [SB-742609] — higher, 1.102
- O=C(Nc1n[nH]c2nc(-c3cccs3)c(Br)cc12)C1CCCC1 [SB-743341] — lower, 0.9376
- O=C(Nc1n[nH]c2nc(-c3ccco3)ccc12)C1CC1 [SB-743899] — higher, 1.211
- CCn1c(-c2nonc2N)nc2c(N3CCCC3)nccc21 [SB-744941] — lower, 0.961
- CCn1c(-c2nonc2N)nc2cncc(CNC3CCNCC3)c21 [SB-747651-A] — higher, 1.501
- NCc1ccc(-n2c(-c3nonc3N)nc3cnccc32)cc1 [SB-750140] — higher, 1.416
- Cn1nc(-c2ccc(NC(=O)Nc3ccc4ccccc4c3)c(F)c2)c2cnc(NCCN3CCOCC3)nc21 [SB-750250-M] — higher, 1.757
- CCc1nccc2c1nc(-c1nonc1N)n2CC [SB-751148] — higher, 1.115
- CN(C)CCCn1c(-c2nonc2N)nc2cnccc21 [SB-751399] — higher, 1.355
- CCn1c(-c2nonc2N)nc2cncc(C(=O)N3CCNCC3)c21 [SB-759335-B] — higher, 1.333
- CCn1c(-c2nonc2N)nc2cncc(C(=O)N3CC[C@H](N)C3)c21 [SB-772077-B] — higher, 1.135
- Nc1nc(N)c2[nH]c(-c3ccccc3)nc2n1 [SKF-12778] — lower, 1.022
- Cn1ncc2c(N)ncnc21 [SKF-18267] — lower, 0.9633
- CNc1ncnc2[nH]ncc12 [SKF-18355] — lower, 1.025
- CN(C)c1ncnc2nc[nH]c12 [SKF-31736] — higher, 1.087
- Fc1ccc(-c2c(-c3ccncc3)nc3n2CCS3)cc1 [SKF-86055] — higher, 1.285
- CCn1cnc2c(NCc3ccccc3)ncnc21 [SKF-96418] — lower, 0.8238
- Nc1ncnc2c1ncn2-c1cccc2ccccc12 [SKF-97184] — lower, 0.9854
- COc1ccc(-n2cnc3c(N)ncnc32)cc1 [SKF-97236] — lower, 1.027
- CCCCCc1nc2c(N)ncnc2n1CCCCC [SKF-97255] — lower, 0.8987
- CC(C)(C)c1ccc(-n2cnc3c(N)ncnc32)cc1 [SKF-97263] — lower, 1.008
- Nc1ncnc2c1nc(-c1ccccc1)n2-c1ccccc1 [SKF-97293] — higher, 1.205
- CC(C)(C)n1cnc2c(N)ncnc21 [SKF-97359] — lower, 1.052
- COc1cccc(-n2cnc3c(N)ncnc32)c1 [SKF-97416] — lower, 1.043
- Cc1ccccc1-n1cnc2c(N)ncnc21 [SKF-97510] — higher, 1.09
- Nc1ncnc2c1ncn2-c1cccc(F)c1 [SKF-97560] — lower, 1.042
- CCC(CC)(CC)n1cnc2c(N)ncnc21 [SKF-97620] — lower, 0.9821
- Cn1cnc2c(N)ncnc21 [SKF-97623] — lower, 1.06

Same assay, conditions: 0.23 h, 10 µM

With `O=C(Nc1n[nH]c2nnc(-c3cccnc3)cc12)C1CC1` [SB-675259-M] the “% of control remaining” value was 1.147.
